# Experiments:
# [1] = test system: subject presenting with PCOS; experiment: Example: oral chromium picolinate/picolinic acid tablet in a subject presenting with PCOS; format: in vivo; conditions: daily dose of 1,000 μg of chromium
# Description: A subject presenting with PCOS is identified. The subject is orally administered a tablet comprising chromium picolinate and picolinic acid at a ratio of 1:10 w/w at a daily dose of 1,000 μg of chromium. The tablet additionally comprises guaifenesin and ibuprofen in a pharmaceutically effective dose. Over the course of several weeks, a decrease in body mass and improved lipid profile is observed. The chromic picolinate sensitizes the subject's insulin and the symptoms of PCOS are reduced.
# [2] = rats, oral CrCl3 with the NSAID; cited from earlier work
# women with PCOS = conditions: 14 women with PCOS, metformin 850 mg three times a day for 12 weeks; cited from earlier work
compound,measurement,setting,value
chromic picolinate,effect on the subject's insulin,[1],sensitizes
CC(=O)Oc1ccccc1C(=O)O [aspirin],Chromium absorption following oral administration of CrCl3,[2],facilitated
CN(C)C(=N)N=C(N)N [metformin],17-hydroxy progesterone level,women with PCOS,unchanged
same,Body mass index (BMI),women with PCOS,unchanged
same,DHEAS level,women with PCOS,unchanged
same,Free testosterone level,women with PCOS,unchanged
same,androstenedione level,women with PCOS,unchanged
same,estradiol level,women with PCOS,unchanged
same,follicle-stimulating hormone (FSH) level,women with PCOS,unchanged
same,insulin secretion,women with PCOS,not improved
same,progesterone level,women with PCOS,unchanged
same,stimulated LH level,women with PCOS,unchanged
